In PubChem BioAssay AID248 (DTP/NCI, 2004):
Toxic doses and inconclusive results are not listed. Cut-off read from the data, not from the text of the source: active = T/C of 150% or more; inactive = T/C below 125%. Square brackets hold non-standard residues; d marks the D form. Peptide text beside a SMILES is read from it. ξ: configuration not given here. ξV = CC(C)C(N)C(=O)O

Test system: L1210 leukemia ip in BDF1 mice, survival T/C
Test: NCI In Vivo Anticancer Drug Screen. Data for tumor model L1210 Leukemia (intraperitoneal) in B6D2F1 (BDF1) mice
Settings: endpoint: mean survival time, higher = longer survival
Summary of the method: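 Mice bearing the transplanted tumor received compound or vehicle. Survival of the treated group was divided by that of the vehicle-treated control group to give the ratio.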

[1] = dose: 100.0 mg/kg/injection, schedule: Q01DX001 (ip), vehicle: carboxymethylcellulose (CMC)
[2] = dose: 200.0 mg/kg/injection, schedule: Q01DX001 (ip), vehicle: carboxymethylcellulose (CMC)
[3] = dose: 400.0 mg/kg/injection, schedule: Q01DX001 (ip), vehicle: carboxymethylcellulose (CMC)
[4] = dose: 100.0 mg/kg/injection, schedule: Q01DX009 (ip), vehicle: saline
[5] = dose: 200.0 mg/kg/injection, schedule: Q01DX009 (ip), vehicle: saline
[6] = dose: 100.0 mg/kg/injection, schedule: Q04DX003 (ip), vehicle: saline
[7] = dose: 200.0 mg/kg/injection, schedule: Q04DX003 (ip), vehicle: saline
[8] = dose: 400.0 mg/kg/injection, schedule: Q01DX009 (ip), vehicle: saline
[9] = dose: 400.0 mg/kg/injection, schedule: Q04DX003 (ip), vehicle: saline
[10] = dose: 50.0 mg/kg/injection, schedule: Q01DX Z (ip), vehicle: methylcellulose (MC)

Measured: T/C

C=C(C)C1CCC2=CCCC(C)C2(C)C1 (stereo not drawn)
inactive: dose: 100.0 mg/kg/injection, schedule: Q04DX003 (ip), vehicle: acetone 98 % of control | dose: 200.0 mg/kg/injection, schedule: Q04DX003 (ip), vehicle: acetone 96 % of control

NC(=S)NC(=S)Nc1ccccc1
inactive: dose: 100.0 mg/kg/injection, schedule: Q04DX003 (ip), vehicle: Klucel (hydroxypropylcellulose) (HPC) 103 % of control | dose: 200.0 mg/kg/injection, schedule: Q04DX003 (ip), vehicle: Klucel (hydroxypropylcellulose) (HPC) 110 % of control | dose: 400.0 mg/kg/injection, schedule: Q04DX003 (ip), vehicle: Klucel (hydroxypropylcellulose) (HPC) 106 % of control

NC(=S)N/N=C(/Cc1ccccc1)CC(O)(C(F)(F)F)C(F)(F)F
inactive: dose: 50.0 mg/kg/injection, schedule: Q01DX009 (ip), vehicle: gum acacia 92 % of control | dose: 100.0 mg/kg/injection, schedule: Q01DX009 (ip), vehicle: gum acacia 91 % of control | dose: 100.0 mg/kg/injection, schedule: Q04DX003 (ip), vehicle: gum acacia 94 % of control | dose: 200.0 mg/kg/injection, schedule: Q04DX003 (ip), vehicle: gum acacia 105 % of control

CCn1cnc2c(C(F)(F)F)nc(N)nc21
inactive: dose: 12.5 mg/kg/injection, schedule: Q01DX001 (ip), vehicle: acetone 94 % of control | dose: 12.5 mg/kg/injection, schedule: Q01DX009 (ip), vehicle: saline with Tween-80 96 % of control | dose: 12.5 mg/kg/injection, schedule: Q04DX003 (ip), vehicle: saline 103 % of control | dose: 25.0 mg/kg/injection, schedule: Q01DX001 (ip), vehicle: acetone 94 % of control | dose: 25.0 mg/kg/injection, schedule: Q01DX009 (ip), vehicle: saline with Tween-80 101 % of control | dose: 25.0 mg/kg/injection, schedule: Q04DX003 (ip), vehicle: saline 87 % of control | dose: 50.0 mg/kg/injection, schedule: Q01DX001 (ip), vehicle: acetone 101 % of control | dose: 50.0 mg/kg/injection, schedule: Q01DX009 (ip), vehicle: saline with Tween-80 95 % of control | dose: 50.0 mg/kg/injection, schedule: Q04DX003 (ip), vehicle: saline 97 % of control

Cc1ccc(NC(=O)OCCSCCOC(=O)Nc2ccc(C)cc2)cc1
inactive: dose: 100.0 mg/kg/injection, schedule: Q01DX009 (ip), vehicle: other 89 % of control | dose: 200.0 mg/kg/injection, schedule: Q01DX009 (ip), vehicle: other 89 % of control | dose: 400.0 mg/kg/injection, schedule: Q01DX009 (ip), vehicle: other 97 % of control

Cc1nc(N)[nH]c(=O)c1CCCN=Cc1cccc([N+](=O)[O-])c1
inactive: dose: 12.5 mg/kg/injection, schedule: Q01DX001 (ip), vehicle: Klucel (hydroxypropylcellulose) (HPC) 110 % of control | dose: 25.0 mg/kg/injection, schedule: Q01DX001 (ip), vehicle: Klucel (hydroxypropylcellulose) (HPC) 103 % of control | dose: 50.0 mg/kg/injection, schedule: Q01DX001 (ip), vehicle: Klucel (hydroxypropylcellulose) (HPC) 97 % of control

Cc1cccc(N2CCN(P(=S)(c3ccccc3)N3CCN(c4cccc(C)c4)CC3)CC2)c1
inactive: [1] 89 % of control | [2] 95 % of control | [3] 86 % of control

O=C(O)CCC(=O)c1ccccc1
inactive: dose: 50.0 mg/kg/injection, schedule: Q01DX009 (ip), vehicle: saline 97 % of control | dose: 100.0 mg/kg/injection, schedule: Q01DX009 (ip), vehicle: Klucel (hydroxypropylcellulose) (HPC) 100 % of control | [4] 97 % of control | dose: 100.0 mg/kg/injection, schedule: Q04DX002 (ip), vehicle: Klucel (hydroxypropylcellulose) (HPC) 97 % of control | dose: 100.0 mg/kg/injection, schedule: Q04DX002 (ip), vehicle: saline with Tween-80 108 % of control | dose: 200.0 mg/kg/injection, schedule: Q01DX009 (ip), vehicle: Klucel (hydroxypropylcellulose) (HPC) 96 % of control | [5] 105 % of control | dose: 200.0 mg/kg/injection, schedule: Q04DX002 (ip), vehicle: Klucel (hydroxypropylcellulose) (HPC) 91 % of control | dose: 200.0 mg/kg/injection, schedule: Q04DX002 (ip), vehicle: saline with Tween-80 105 % of control | dose: 400.0 mg/kg/injection, schedule: Q01DX009 (ip), vehicle: Klucel (hydroxypropylcellulose) (HPC) 107 % of control | dose: 400.0 mg/kg/injection, schedule: Q04DX002 (ip), vehicle: Klucel (hydroxypropylcellulose) (HPC) 87 % of control | dose: 400.0 mg/kg/injection, schedule: Q04DX002 (ip), vehicle: saline with Tween-80 105 % of control

O=C1CCSCCN1
inactive: [4] 98 % of control | [6] 97 % of control | [5] 103 % of control | [7] 97 % of control | [8] 101 % of control | [9] 95 % of control

Clc1onc(-c2ccccc2)c1-c1ccccc1
inactive: dose: 100.0 mg/kg/injection, schedule: Q01DX009 (ip), vehicle: saline with Tween-80 101 % of control | dose: 100.0 mg/kg/injection, schedule: Q04DX003 (ip), vehicle: saline with Tween-80 107 % of control | dose: 200.0 mg/kg/injection, schedule: Q01DX009 (ip), vehicle: saline with Tween-80 110 % of control | dose: 200.0 mg/kg/injection, schedule: Q04DX003 (ip), vehicle: saline with Tween-80 90 % of control | dose: 400.0 mg/kg/injection, schedule: Q01DX009 (ip), vehicle: saline with Tween-80 97 % of control | dose: 400.0 mg/kg/injection, schedule: Q04DX003 (ip), vehicle: saline with Tween-80 91 % of control

CNc1ccc(C(=O)NC(CCC(=O)O)C(=O)O)cc1[N+](=O)[O-] (stereo not drawn)
inactive: [6] 105 % of control | [7] 94 % of control | [9] 103 % of control

CC(=O)OCC1OC(Sc2cccc3ccccc23)C(OC(C)=O)C(OC(C)=O)C1OC(C)=O (stereo not drawn)
inactive: dose: 100.0 mg/kg/injection, schedule: Q01DX001 (ip), vehicle: saline 104 % of control | dose: 200.0 mg/kg/injection, schedule: Q01DX001 (ip), vehicle: saline 93 % of control | dose: 400.0 mg/kg/injection, schedule: Q01DX001 (ip), vehicle: saline 98 % of control

CCCCN(CCCC)N=Nc1c[nH]c(=O)[nH]c1=O
inactive: dose: 8.0 mg/kg/injection, schedule: Q01DX Z (ip), vehicle: carboxymethylcellulose (CMC) 114 % of control | dose: 16.0 mg/kg/injection, schedule: Q01DX Z (ip), vehicle: carboxymethylcellulose (CMC) 109 % of control

COc1ccc(Nc2cc(C)nc(N)n2)cc1
inactive: dose: 25.0 mg/kg/injection, schedule: Q01DX Z (ip), vehicle: methylcellulose (MC) 97 % of control | [10] 105 % of control

Cc1ncc(CCO)c2c1OC(C)(C)OC2
inactive: [1] 98 % of control | [2] 110 % of control | [3] 101 % of control

N#CC(Cc1ccccc1)C(=O)O (stereo not drawn)
inactive: dose: 50.0 mg/kg/injection, schedule: Q01DX Z (ip), vehicle: saline 106 % of control | dose: 100.0 mg/kg/injection, schedule: Q01DX Z (ip), vehicle: saline 102 % of control | dose: 200.0 mg/kg/injection, schedule: Q01DX Z (ip), vehicle: saline 91 % of control

CC(C)C(NC(=O)CN)C(=O)O (stereo not drawn) (H-Gly-[ξV]-OH)
inactive: dose: 50.0 mg/kg/injection, schedule: Q04DX002 (ip), vehicle: saline 107 % of control | [4] 98 % of control | dose: 100.0 mg/kg/injection, schedule: Q04DX002 (ip), vehicle: saline 110 % of control | [6] 97 % of control | [5] 111 % of control | dose: 200.0 mg/kg/injection, schedule: Q04DX002 (ip), vehicle: saline 103 % of control | [7] 124 % of control | [8] 112 % of control | [9] 97 % of control

O=C(O)C(O)C(O)C(O)C(O)C(O)CO.[Fe] (stereo not drawn)
inactive: dose: 75.0 mg/kg/injection, schedule: Q01DX001 (ip), vehicle: saline 95 % of control

CSc1nc(C)c(Br)c(N2CC2)n1
inactive: [10] 95 % of control
